{
  "source": "patent US8841233B2",
  "about": "“Herbicidal compositions comprising 4-amino-3-chloro-5-fluoro-6-(4-chloro-2-fluoro-3-methoxyphenyl) pyridine-2-carboxylic acid or a derivative thereof and 4-hydroxyphenyl-pyruvate dioxygenase (HPPD) inhibitors” (Dow Agrosciences LLC, priority 2012, dated 2014)",
  "key": {"[1]": {"system": "ECHCO", "assay": "Post-emergence foliar-applied weed control, greenhouse (Example I)", "assay_type": "in vivo, Echinochloa colona (L.) Link", "from_the_text": "(§1) Evaluation of Post-emergence Foliar-Applied Herbicidal Mixtures for Weed Control in Direct Seeded Rice\n(§2) Seeds or nutlets of the desired test plant species were planted in a soil matrix prepared by mixing a loam or sandy loam soil (e.g., 28.6 percent silt, 18.8 percent clay, and 52.6 percent sand, with a pH of about 5.8 and an organic matter content of about 1.8 percent) and calcareous grit in an 80 to 20 ratio. The soil matrix was contained in plastic pots with a volume of 1 quart and a surface area of 83.6 square centimeters (cm^2). When required to ensure good germination and healthy plants, a fungicide treatment and/or other chemical or physical treatment was applied. The plants were grown for 8-22 days in a greenhouse with an approximate 14 h photoperiod which was maintained at about 29° C. during the day and 26° C. during the night. Nutrients (Peters Excel® 15-5-15 5-Ca 2-Mg and iron chelate) were applied in the irrigation solution as needed and water was added on a regular basis. Supplemental lighting was provided with overhead metal halide 1000-Watt lamps as necessary. The plants were employed for testing when they reached the first through fourth true leaf stage.\n(§3) Treatments consisted of the acid or esters of 4-amino-3-chloro-5-fluoro-6-(4-chloro-2-fluoro-3-methoxy-phenyl)pyridine-2-carboxylic acid (Compound A), each formulated as an SC (suspension concentrate), and various herbicidal components alone and in combination. Forms of Compound A were applied on an acid equivalent basis.\n(§4) Other herbicidal components were applied on an active ingredient basis and included 4-hydroxyphenyl pyruvate dioxygenase (HPPD)-inhibiting herbicides mesotrione formulated as Callisto®, sulcotrione formulated as Mikado®, pyrazolynate formulated as Sunbird® 10% GR, and benzobicyclon formulated as Benzobicyclon 3.5%.\n(§5) Treatment requirements were calculated based upon the rates being tested, the concentration of active ingredient or acid equivalent in the formulation, and a 12 mL application volume at a rate of 187 L/ha.\n(§6) For treatments comprised of formulated compounds, measured amounts of compounds were placed individually in 25 mL glass vials and diluted in a volume of 1.25% (v/v) Agri-Dex® crop oil concentrated to obtain 12× stock solutions. […] Application solutions were prepared by adding an appropriate amount of each stock solution (e.g., 1 mL) and diluted to the appropriate final concentrations with the addition of 10 mL of an aqueous mixture of 1.25% (v/v) crop oil concentrate so that the final spray solutions contained 1.25+/−0.05% (v/v) crop oil concentrate.\n(§7) For treatments comprised of formulated and technical compounds, weighed amounts of the technical materials were placed individually in 25 mL glass vials and dissolved in a volume of 97:3 v/v acetone/DMSO to obtain 12× stock solutions, and measured amounts of the formulated compounds were placed individually in 25 mL glass vials and diluted in a volume of 1.5% (v/v) crop oil concentrate or water to obtain 12× stock solutions. […] Application solutions were prepared by adding an appropriate amount of each stock solution (e.g., 1 mL) and diluted to the appropriate final concentrations with the addition of an appropriate amount of an aqueous mixture of 1.5% (v/v) crop oil concentrate so that the final spray solutions contained 1.25% (v/v) crop oil concentrate. As required, additional water and/or 97:3 v/v acetone/DMSO was added to individual application solutions so that the final acetone and DMSO concentrations of the application solutions being compared were 8.1% and 0.25%, respectively.\n(§8) All stock solutions and applications solutions were visually inspected for compound compatibility prior to application. Spray solutions were applied to the plant material with an overhead Mandel track sprayer equipped with a 8002E nozzles calibrated to deliver 187 L/ha over an application area of 0.503 m^2 at a spray height of 18 to 20 inches (46 to 50 cm) above average plant canopy height. […]"}, "[2]": {"system": "CYPIR", "assay": "Post-emergence foliar-applied weed control, greenhouse (Example I)", "assay_type": "in vivo, Cyperus iria L.", "from_the_text": "as §1, §2, §3, §4, §5, §6, §7, §8"}},
  "data": [
    {"smiles": "COc1c(Cl)ccc(-c2nc(C(=O)O)c(Cl)c(N)c2F)c1F", "note": "[Compound A Acid, 4-amino-3-chloro-6-(4-chloro-2-fluoro-3-methoxyphenyl)-5-fluoropyridine-2-carboxylic acid]", "values": [
      {"measurement": "Visual Weed Control (%) - 20 DAA ECHCO Obs", "setting": "[1]; 4.38 gae/ha", "value": 40, "unit": "%"},
      {"measurement": "Visual Weed Control (%) - 22 DAA ECHCO Obs", "setting": "[1]; 5.3 gae/ha", "value": 65, "unit": "%"},
      {"measurement": "Visual Weed Control (%) - 20 DAA ECHCO Obs", "setting": "[1]; 8.75 gae/ha", "value": 60, "unit": "%"},
      {"measurement": "Visual Weed Control (%) - 22 DAA ECHCO Obs", "setting": "[1]; 10.6 gae/ha", "value": 65, "unit": "%"},
      {"measurement": "Visual Weed Control (%) - 20 DAA ECHCO Obs", "setting": "[1]; 17.5 gae/ha", "value": 85, "unit": "%"},
      {"measurement": "Visual Weed Control (%) - 20 DAA CYPIR Obs", "setting": "[2]; 4.38 gae/ha", "value": 75, "unit": "%"},
      {"measurement": "Visual Weed Control (%) - 20 DAA CYPIR Obs", "setting": "[2]; 8.75 gae/ha", "value": 90, "unit": "%"},
      {"measurement": "Visual Weed Control (%) - 20 DAA CYPIR Obs", "setting": "[2]; 17.5 gae/ha", "value": 90, "unit": "%"}
    ]},
    {"smiles": "COc1c(Cl)ccc(-c2nc(C(=O)OCc3ccccc3)c(Cl)c(N)c2F)c1F", "note": "[Compound A Benzyl Ester, benzyl ester of 4-amino-3-chloro-5-fluoro-6-(4-chloro-2-fluoro-3-methoxy-phenyl)pyridine-2-carboxylic acid]", "values": [
      {"measurement": "Visual Weed Control (%) - 20 DAA ECHCO Obs", "setting": "[1]; 4.38 gae/ha", "value": 40, "unit": "%"},
      {"measurement": "Visual Weed Control (%) - 22 DAA ECHCO Obs", "setting": "[1]; 4.38 gae/ha", "value": 30, "unit": "%"},
      {"measurement": "Visual Weed Control (%) - 22 DAA ECHCO Obs", "setting": "[1]; 8.75 gae/ha", "value": 55, "unit": "%"},
      {"measurement": "Visual Weed Control (%) - 22 DAA CYPIR Obs", "setting": "[2]; 4.38 gae/ha", "value": 10, "unit": "%"},
      {"measurement": "Visual Weed Control (%) - 22 DAA CYPIR Obs", "setting": "[2]; 8.75 gae/ha", "value": 65, "unit": "%"}
    ]}
  ]
}
